≈ marks a conversion by molar mass, not a printed value.
Details: for aqueous solubility: pH 6.8

MDR1-MDCK efflux ratio	intrinsic clearance, human liver microsomes [mL/min/kg]	intrinsic clearance, rat liver microsomes [mL/min/kg]	aqueous solubility [µg/mL]	fraction unbound, human plasma	fraction unbound, rat plasma	Structure (SMILES)
2.84	≤ 4.74	36.7	–	–	–	Cc1cc(Cn2cnc(C#N)c2C#N)c2ccccc2n1
0.447	–	–	0.37 (≈ 1.07 µM)	–	–	Cc1ccc(-c2ccc(NC(=O)c3ncoc3-c3ccccc3)cc2)o1
8.31	≤ 4.74	291	46.1 (≈ 126 µM)	–	–	Cc1cc(C(=O)NCCC2=CSC3=NCCCN23)c2cccc(C)c2n1
0.985	≤ 4.74	≤ 10.7	40.2 (≈ 139 µM)	–	–	O=C(Nn1cnc2ccccc21)c1cc(Cl)ccc1F
0.468	78.5	90.1	6.1 (≈ 19.4 µM)	–	–	O=C(Nc1ccc(F)cc1F)N1CCn2c1nc1ccccc12
–	44.3	244	–	–	–	c1cnc2c(Oc3ncnc4sccc34)cccc2c1
–	–	–	1.85 (≈ 5.03 µM)	–	–	Cc1sc2ncnc(N3CCC(C(=O)Nc4ccccn4)CC3)c2c1C
0.976	≤ 4.74	41.1	62.7 (≈ 182 µM)	–	–	Brc1ccc(-c2nnc(Cn3cnc4ccccc43)o2)o1
–	≤ 4.74	≤ 10.7	–	–	–	Cc1nn(C)c2nc(-c3ccncc3)cc(C(=O)O)c12
0.386	44.1	558	–	0.0044	0.00657	COc1ccc(CNC(=O)c2sc3nc(C)cc(C)c3c2N)cc1
0.343	187	238	–	–	–	N#Cc1ccc(CNc2cnc3ccccc3c2)o1
0.69	92.8	941	64 (≈ 207 µM)	–	–	Cc1cc(C(=O)N(C)Cc2ccc(Br)cc2)no1
2.13	134	1990	2.7 (≈ 6.28 µM)	–	–	CC(=O)N1CCN(c2c(Cl)cccc2NC(=O)COc2ccc(C(C)C)cc2)CC1
–	–	–	24.2 (≈ 86.9 µM)	–	–	Cc1ccc(C)n1-c1ccc(CNS(C)(=O)=O)cc1
–	256	203	–	–	–	Cc1ccc(-c2cnc3ccccc3n2)cc1N
4.28	19.7	738	43.2 (≈ 113 µM)	–	–	CN1CC(=O)N(CCCC(=O)Nc2cccc(C#Cc3cccs3)c2)C1=O
–	7.61	17.1	–	–	–	O=S(=O)(Nc1ccc(C(O)(C(F)(F)F)C(F)(F)F)cc1)c1ccccc1

MDR1-MDCK efflux ratio	intrinsic clearance, human liver microsomes [mL/min/kg]	intrinsic clearance, rat liver microsomes [mL/min/kg]	aqueous solubility [µg/mL]	fraction unbound, human plasma	fraction unbound, rat plasma	Structure (SMILES)
–	≤ 4.74	92.7	–	–	–	CN1C(=O)COc2cc(NC(=O)C3CC=CC3)ccc21
0.609	≤ 4.74	≤ 10.7	47 (≈ 235 µM)	–	–	Cc1cccn(Cc2cccnc2)c1=O
0.709	≤ 4.74	≤ 10.7	17.6 (≈ 56.7 µM)	–	–	Cc1cc(C)n2ncc(C(=O)Nc3cccc(C(=O)O)c3)c2n1
6.78	34.2	481	14.3 (≈ 48.5 µM)	–	–	O=c1cc(CN2CCCCc3ccccc32)[nH]c2ccnn12
1.62	≤ 4.74	≤ 10.7	37.2 (≈ 147 µM)	–	–	O=C(O)c1c2ccccc2nn1Cc1ccccc1
1.76	≤ 4.74	50.1	–	–	–	CN1CCC(CNC(=O)c2ncoc2-c2ccc(F)cc2)CC1
0.605	24.5	131	3.51 (≈ 13 µM)	–	–	Fc1ccccc1CNc1nc(-c2ccccc2)no1
4.8	12.7	171	1.1 (≈ 2.43 µM)	–	–	CN(C)CCOc1ccc(-c2nc(-c3ccncc3)c(-c3ccc4c(c3)CC/C4=N\O)[nH]2)cc1
–	–	–	8.39 (≈ 19.7 µM)	–	–	CNC(=O)c1ccc2c(c1)NC(=O)/C2=C(\Nc1cccc(CN(C)C)c1)c1ccccc1
23.2	≤ 4.74	≤ 10.7	45.3 (≈ 160 µM)	–	–	Cc1ccc(C(=O)Nc2cccc(C(=O)N(C)C)c2)cn1
0.946	37.5	521	4.92 (≈ 11.2 µM)	–	–	COc1ccc(-n2cc3c(c2-c2ccccc2Br)c(=O)n(C)c(=O)n3C)cc1
0.465	257	503	35.5 (≈ 128 µM)	–	–	Cc1ccc(C(=O)Nc2ccccc2-c2ccccc2)o1
–	68.9	747	63.1 (≈ 194 µM)	–	–	O=C(NCCCn1ccnc1)N1CC2(CCCC2)c2ccccc21
0.511	22	140	–	–	–	Cc1ccc(C(=O)NCCc2ccc(F)cc2)o1
–	–	–	0.1 (≈ 0.243 µM)	–	–	c1cn2cc(-c3ccc4cn[nH]c4c3)nc(Nc3ccc(N4CCOCC4)cc3)c2n1
–	7.59	25.3	–	–	–	Nc1ccc2c(c1)ncn2-c1ccccc1
0.634	63.5	1060	–	–	–	COc1ncnc(C)c1-c1cccc(OC(C)C)c1

More lines, now with the values behind:

Structure (SMILES)	MDR1-MDCK efflux ratio	intrinsic clearance, human liver microsomes [mL/min/kg]	intrinsic clearance, rat liver microsomes [mL/min/kg]	aqueous solubility [µg/mL]	fraction unbound, human plasma	fraction unbound, rat plasma
CCOCC(=O)Nc1cccc(CN2CCCC2)c1	2.31	15	501	–	–	–
Cc1cc(C(=O)N(C)C2CCSCC2)c(=O)n(C)c1C	39	29.1	56.4	–	–	–
CCN1CCc2ncnc(N3CCNc4ccccc4C3)c2C1	1.78	≤ 4.74	105	52.1 (≈ 168 µM)	–	–
CSCC(=O)N1CCc2[nH]nc(-c3cccc(F)c3)c2C1	–	57	960	49.5 (≈ 162 µM)	–	–
CCC(CC)NC(=O)c1ccc(C#N)c(C)n1	–	6.17	50	52.9 (≈ 229 µM)	–	–
O=C(Nc1nccs1)C1CCN(C(=O)CN2CCc3ccccc32)CC1	24.4	33.2	394	51.4 (≈ 139 µM)	–	–
COc1cccc(CN(C)c2cc(N3CCCC3)ncn2)n1	0.683	128	4460	–	–	–
Cc1ccc(C(=O)N2CCN(C(=O)NCC(=O)N3CCCC3)CC2)cc1F	60.6	≤ 4.74	22.3	75.6 (≈ 201 µM)	–	–
COc1ncnc2c1CN(Cc1c[nH]nc1-c1ccc(F)cc1)CC2	7.03	70.7	210	28.4 (≈ 83.5 µM)	–	–
Cc1c(C(=O)NCCCN(C)C)sc2ncnc(Nc3ccc(F)cc3OC(C)C)c12	59.2	≤ 4.74	52.4	23.6 (≈ 52.9 µM)	0.0552	0.0926
COc1cccc(Cn2cnc3c(c2=O)COCC3)c1Cl	0.9	5.71	138	–	–	–
Cc1cc(C)cc(OCCN(C)C(=O)NCCN2CCCCC2=O)c1	29.2	150	1300	–	–	–
C[C@H]1NC(=O)N(CCc2nc(C(F)(F)F)cs2)C1=O	1.6	5.83	24.8	–	–	–
CC(C)c1nccn1Cc1nc2ccccc2[nH]1	24.4	≤ 4.74	238	–	–	–
CC(C)(C)c1nccc(NCc2ccncc2)n1	0.7	14.1	748	30.4 (≈ 125 µM)	–	–
N#Cc1c(N2CCCC2)oc2nc3ccccc3nc12	–	–	–	0.3 (≈ 1.14 µM)	–	–
Nc1ccc(C(=O)N2CCOCC2)c(Cl)c1	0.476	≤ 4.74	≤ 10.7	38.1 (≈ 159 µM)	–	–
c1cc(CC2CCNCC2)c2cccnc2c1	–	≤ 4.74	141	52.2 (≈ 231 µM)	–	–
Cc1ccc2occ(CN3C[C@H]4CCCN4C[C@H]3C)c(=O)c2c1	0.849	24	956	–	–	–
Nc1ncnc2c1ncn2[C@@H]1O[C@H](CO)[C@@H](O)[C@@H]1O	–	–	–	54.7 (≈ 205 µM)	–	–
CCc1[nH]nc(NC2CCC(C(=O)OC)CC2)c1C (stereo unspecified)	0.826	523	296	–	–	–
CCCN(CC)c1ccc(C(=O)N2CCCN(C(C)=O)CC2)cc1	6.92	25.7	308	48.4 (≈ 146 µM)	–	–
CN(Cc1ccc(N)nc1)c1ncccn1	0.62	≤ 4.74	22.8	28.5 (≈ 132 µM)	–	–
Nc1cncc(-c2ccc(CN3CCCCC3)cc2)c1	0.743	40.7	56.3	26 (≈ 97.1 µM)	–	–
CCCCCCCCc1ccc(CC[C@](N)(CO)COP(=O)(O)O)cc1	–	7.61	–	–	–	–
CC(=O)Nc1ncc(CN2CCCC[C@@H]2C)s1	1.31	≤ 4.74	14.1	–	1	0.838

From the Biogen ADME set (Fang et al. 2023)
